Source: the supplement of paper PMC10307832

Tests used:
Experiment in all cases: relative viability (nuclei count vs DMSO), 5 days (fraction); higher = more cells survive
[1] = compound: CCC1=CN=CN=C1N2CCN(CC2)CC3=NC4=C(N3)C=C(C=C4)C(F)(F)F + C[C@@H](Oc1cc(-c2cnn(C3CCNCC3)c2)cnc1N)c1c(Cl)ccc(F)c1Cl [Crizotinib] (partner 1 µM)
In short: (§1)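 For relative viability, nuclei counts in treated wells were divided by those in vehicle wells. Lung cancer cell lines had been pin-tool dosed in 1536-well plates the day after seeding and cultured for 5 days, then fixed and stained in one step (final 0.05% Triton X-100, 1% formaldehyde, 1 ug/ml Hoechst) and imaged at 4×. Doses were one drug alone or a fixed anchor-drug dose plus five library-drug doses (not always all listed) in √10 steps, and values are duplicate-plate medians.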

[2] = compound: CCC1=CN=CN=C1N2CCN(CC2)CC3=NC4=C(N3)C=C(C=C4)C(F)(F)F + C[C@]1(O)C[C@@H](c2nc(-c3ccc4ccc(-c5ccccc5)nc4c3)c3c(N)nccn32)C1 [Linsitinib] (partner 1 µM)
In short: as §1

[3] = compound: CCC1=CN=CN=C1N2CCN(CC2)CC3=NC4=C(N3)C=C(C=C4)C(F)(F)F + Nc1ncn([C@H]2C[C@H](O)[C@@H](CO)O2)c(=O)n1 [Decitabine] (partner 2 µM)
In short: as §1

Mirin + Bortezomib = compound: N=C1NC(=O)/C(=C/c2ccc(O)cc2)S1 [Mirin] + CC(C)C[C@H](NC(=O)[C@H](Cc1ccccc1)NC(=O)c1cnccn1)B(O)O [Bortezomib] (partner 0.002 µM)
In short: as §1

Row | Cell Line | relative viability ([1]; first compound 0.04 µM) | relative viability ([1]; first compound 0.1265 µM) | relative viability ([1]; first compound 0.4 µM) | relative viability ([1]; first compound 1.265 µM) | relative viability ([1]; first compound 4 µM) | relative viability ([2]; first compound 0.04 µM) | relative viability ([2]; first compound 0.1265 µM) | relative viability ([2]; first compound 0.4 µM) | relative viability ([2]; first compound 1.265 µM) | relative viability ([2]; first compound 4 µM) | relative viability ([3]; first compound 0.04 µM) | relative viability ([3]; first compound 0.1265 µM) | relative viability ([3]; first compound 0.4 µM) | relative viability ([3]; first compound 1.265 µM) | relative viability ([3]; first compound 4 µM) | relative viability (Mirin + Bortezomib; first compound 0.25 µM) | relative viability (Mirin + Bortezomib; first compound 0.7906 µM) | relative viability (Mirin + Bortezomib; first compound 2.5 µM) | relative viability (Mirin + Bortezomib; first compound 7.906 µM) | relative viability (Mirin + Bortezomib; first compound 25 µM)
1 | HCC-78 | 0.304 | 0.3 | 0.345 | 0.322 | 0.379 | 0.38 | 0.584 | 0.478 | 0.464 | 0.335 | 0.667 | 0.501 | 0.643 | 0.6 | 0.674 | 0.449 | 1.03 | 0.524 | 0.397 | 0.424
2 | HCC-366 | 0.622 | 0.493 | 0.579 |  | 1.15 | 0.907 | 0.595 | 0.525 |  | 0.661 | 0.356 | 0.288 | 0.317 | 0.307 | 0.353 | 1.06 | 0.986 | 1.09 | 0.981 | 0.977
3 | HCC-827 | 0.89 | 0.903 | 0.945 | 0.973 | 0.917 | 0.951 | 0.915 | 0.955 | 0.923 | 0.926 | 0.504 | 0.286 | 0.34 | 0.307 | 0.357 | 1.07 | 1.08 | 1.01 | 1.07 | 1.15
4 | HOP-62 | 0.777 | 1.09 | 0.931 | 1.06 | 0.896 | 1.27 | 1.02 | 0.983 | 0.87 | 0.77 | 0.185 | 0.199 | 0.214 | 0.249 | 0.193 | 0.727 | 0.867 | 0.725 |  | 0.836
5 | IA-LM | 0.907 | 0.763 | 0.94 | 0.669 | 0.759 | 0.664 | 0.617 | 0.568 | 0.45 | 0.464 |  |  |  |  |  | 0.687 | 0.961 | 0.757 | 0.632 | 0.845
6 | LC-2-ad | 0.501 | 0.431 | 0.503 | 0.749 | 0.852 | 0.818 | 0.87 | 0.765 | 0.813 | 0.788 | 0.929 | 0.816 | 0.792 | 0.774 | 0.768 | 0.996 | 1.07 | 1.03 | 0.907 | 1.03
7 | LCLC-97TM1 | 0.389 | 0.354 | 0.387 | 0.413 | 0.502 | 0.23 | 0.185 | 0.158 | 0.166 | 0.202 | 0.24 | 0.205 | 0.225 | 0.227 | 0.215 | 0.589 |  | 0.582 | 0.278 | 0.868
8 | LK-2 | 0.331 | 0.181 | 0.212 | 0.486 | 1.07 | 0.739 | 0.515 | 0.588 | 0.319 | 0.598 | 0.254 | 0.266 | 0.346 | 0.256 | 0.231 |  |  |  |  | 
9 | NCI-H358 | 0.581 | 0.73 | 0.92 | 1.15 | 1.68 | 0.809 | 0.656 | 0.656 | 0.657 | 0.607 | 0.206 | 0.204 | 0.158 | 0.174 | 0.217 |  |  |  |  | 
10 | NCI-H522 |  |  |  |  |  |  |  |  |  |  | 0.666 | 0.63 | 0.821 | 0.621 | 0.797 |  |  |  |  | 
11 | NCI-H1299 | 0.935 | 0.953 | 0.953 | 0.96 | 0.981 | 1.05 | 0.935 | 0.979 | 0.968 | 0.955 |  |  |  |  |  | 1.02 | 1.12 | 1.01 | 1.05 | 1.17
12 | NCI-H1395 |  |  |  |  |  | 1.12 | 1.01 | 1.24 | 0.855 | 1.09 | 0.705 | 0.676 | 0.692 |  | 0.743 |  |  |  |  | 
13 | NCI-H1563 | 0.822 | 0.847 | 0.928 | 0.962 | 1.09 | 1.27 | 1.24 | 1.27 | 1.18 | 1.1 |  |  |  |  |  | 1.07 | 1.11 | 0.943 | 0.8 | 0.812
14 | NCI-H1648 |  |  |  |  |  |  |  |  |  |  | 0.502 |  |  | 0.511 | 0.502 |  |  |  |  | 
15 | NCI-H1650 | 0.942 | 0.853 | 1.03 | 1.06 | 1.42 |  |  |  |  |  | 0.372 | 0.419 | 0.377 | 0.417 | 0.536 | 0.196 | 0.2 | 0.216 | 0.208 | 0.191
16 | NCI-H1703 | 1.07 | 0.697 | 0.775 | 0.858 | 1.23 | 0.595 | 0.669 | 0.851 | 0.473 | 0.771 |  |  |  |  |  | 0.449 | 0.483 | 0.347 |  | 0.227
17 | NCI-H1793 |  |  |  |  |  | 1 | 0.677 | 0.825 |  | 0.895 | 0.479 | 0.484 | 0.436 | 0.428 | 0.432 |  |  |  |  | 
18 | NCI-H1944 | 1.21 | 0.988 | 1.13 |  | 1.23 | 1.36 | 1.21 | 1.08 |  | 0.99 | 0.476 | 0.415 | 0.426 | 0.391 | 0.435 |  |  |  |  | 
19 | NCI-H2170 | 1.12 | 1.18 | 1.2 | 1.27 | 1.49 |  |  |  |  |  | 0.44 | 0.462 | 0.451 | 0.433 | 0.461 |  |  |  |  | 
20 | NCI-H2228 | 0.474 | 0.586 | 0.417 | 0.428 | 0.524 | 0.343 | 0.629 | 0.814 | 0.576 | 0.689 |  |  |  |  |  | 0.983 | 1.04 | 1 | 0.919 | 1.2
21 | NCI-H2342 |  |  |  |  |  |  |  |  |  |  | 0.689 | 0.728 | 0.707 | 0.575 | 0.513 |  |  |  |  | 
22 | SK-MES-1 | 1.01 | 1.01 | 0.942 | 1.09 | 1.19 | 1.02 | 1.06 | 1.16 | 1.1 | 0.95 | 0.34 | 0.386 | 0.373 | 0.372 | 0.361 |  |  |  |  | 
23 | SW 900 |  |  |  |  |  |  |  |  |  |  | 0.385 | 0.424 | 0.457 |  | 0.397 |  |  |  |  | 
